Test results from patent US10000771B2, “Nuclear targeting sequences” (Yeda Research and Development Co. Ltd., priority 2007, dated 2018).
Ends that are not written are not given here. 2GFP = dimer of GFP proteins

How the values were obtained:
Assay type in all cases: cell-based
[1] = tested on: CHO cells; test: Fluorescence microscopy of 2GFP chimeras (subcellular localization); settings: 24 hr post transfection, serum-starved
Procedure: FIGS. 8A-8H are photomicrographs illustrating that SPS, APA, and EPE peptides fused to a 2GFP chimera modify its subcellular localization. CHO cells were grown on cover slips and transfected with 19 amino acid from the kinase insert domain of ERK2 including the SPS region (GFP-SPS) fused to a 2GFP chimera and with the same chimeras with substitution of the Ser to Ala (GFP-APA) or substitution to Glu (GFP-EPE). Twenty-four hr later, the cells were serum-starved for 16 hr, fixed, stained with DAPI and visualized by a fluorescence microscope.
Immunofluorescence Microscopy. Cells were fixed (30 min in 3% paraformaldehyde in PBS or 10 min with ice-cold methanol), followed by 5-min permeabilization with 0.2% Triton X-100 in PBS (23° C.). The fixed cells were sequentially incubated with the appropriate Abs (45 min) followed by rhodamine-conjugated secondary Abs (45 min) and DAPI. Slides were visualized using a fluorescence microscope (Nikon, Japan) at 400× magnifications.
To validate the general importance of the SPS domain, a 19 amino acid sequence surroundings the SPS or the APA and EPE mutants was fused to a dimer of GFP proteins (2GFP). Cellular distribution of the chimeras was detected in CHO cells 24 hr post transfection of the GFP constructs.

[2] = tested on: COS7 cells; test: Subcellular fractionation of 2GFP chimeras
Procedure: FIG. 9A is an autoradiograph illustrating the subcellular fractionation of transfected SPS, APA, and EPE peptides fused to a 2GFP in COS7 cells. Western blot analysis of aliquots of the fractions were stained with anti GFP Ab to detect the different chimaras, and with anti tubulin and anti c-Jun Abs as markers for the cytoplasmic and nuclear fractions respectively.
Cellular Fractionation: Transfected COS7 cells were starved (0.1% FBS) for 16 h, after which they were washed with ice-cold PBS, suspended in ice-cold buffer H, and centrifuged (12,000×g, 5 min). Then, the nuclear and cytosolic fractions were isolated as described [H. Rubinfeld, T. Hanoch, R. Seger, J. Biol. Chem. 274, 30349 (1999)]. Briefly, the pellets were suspended in 0.1% NP-40 followed by centrifugation (12,000×g, 5 min). The supernatant, containing the cytosolic fraction, was boiled in sample buffer. The pellet was suspended in extraction buffer (420 mM Nacl, 50 mM β-glycerophosphate, 0.5 mM Na3VO4, 1.5 mM MgCl2, 0.2 mM EDTA, 1 mM DTT, 25% glycerol), incubate on ice for 10 min, sonicated (50 W, 2×7 sec), and centrifuged (12,000×g, 5 min). The supernatant, containing the nuclear fraction, was subjected to Western blot.

[3] = tested on: CHO cells; test: Fluorescence microscopy of ERK2 constructs (subcellular localization)
Procedure: FIGS. 1A-1R are photomicrographs illustrating the role of SPS in the non-regulated accumulation of ERK2 in the nucleus. CHO (FIGS. 1A-F and 1M-R) or COS7 cells (FIGS. 1G-L) were grown on cover slips and transfected with WT-ERK2, or the mutants 244-6A and Δ244-6. Twenty-four hr following transfection, the cells were serum-starved (16 hr), fixed, stained with DAPI and visualized using a fluorescent microscope.
FIGS. 2A-2X are photomicrographs illustrating the role of SPS in the stimulated nuclear translocation of ERK2. CHO cells were grown on cover slips and co-transfected with HA-MEK1 together with either WT-ERK2, 244-6A, or Δ244-6. Twenty-four hr after transfection, the cells were serum starved for 16 hours, treated with TPA (250 nM, 15 min), except in WT-10 where the cells were treated with 10 nM TPA for 15 min. After treatments the cells were fixed and stained with either anti-HA Ab or DAPI.
FIGS. 5A-5F are photomicrographs illustrating that mutating the Ser residues in the SPS to Glu induces the nuclear accumulation of ERK2. CHO cells were grown on cover slips and transfected with WT-GFP-ERK2 (WT), APA-GFP-ERK2 (APA), or EPE-GFP-ERK2 (EPE). […]
Immunofluorescence Microscopy. […] Slides were visualized using a fluorescence microscope (Nikon, Japan) at 400× magnifications. […]

[4] = tested on: TEY motif of ERK2; test: TEY phosphorylation by Western blot with anti pTEY-ERK; settings: COS7 cells, following EGF stimulation
Procedure: FIG. […] ERK2 phosphorylation was detected by Western blot analysis using anti-phosphoTEY-ERK (αpTEY), and anti ERK Abs (αgERK).
Western Blotting: Cell extract was collected as described above, and aliquots from each sample (20 μg) were separated by 10% SDS-PAGE followed by Western blotting with the appropriate antibodies. The blots were developed with alkaline phosphatase or horseradish peroxidase-conjugated anti-mouse’, anti-rabbit and anti-goat Fab Abs.

Row | Substance | cellular distribution [1] | localized in the nucleus [2] [%] | localization upon TPA stimulation ([3]; CHO cells cotransfected with MEK1, TPA 250 nM) | localization at equivalent TEY phosphorylation levels ([3]; CHO cells cotransfected with MEK1, TPA 10 nM for WT-ERK2 and 250 nM for the mutants) | time of peak TEY phosphorylation [4] [min]
1 | 2GFP-SPS: 2GFP with the 19 amino acid stretch containing the SPS of ERK2 (SEQ ID NO: 6) fused to its C terminus (2GFP-LDQLNHILGILGSPSQEDL) | localized throughout the cell | 15 |  |  | 
2 | WT-ERK2: wild-type ERK2 fused to GFP, prepared in pEGFP C1 [reference compound] |  |  | translocated into the nucleus upon TPA stimulation | localized to the nucleus | 5
